pEC50, pIC50: −log10 of the molar value. Values belong to the compound of their own block, whether it stands above or below them.
Tests used:
[1] = all treated patients; cited from earlier work
HUVEC spheroids = test: VEGF-A induced sprouting, spheroid-based cellular angiogenesis assay; type: cell-based; settings: Homo sapiens
Procedure: The effect of PFKFB3 inhibitors on VEGF-A induced sprouting of HUVECs in a spheroid-based cellular angiogenesis assay. Sunitinib was used as a control. The experiments were pursued in modification of the originally published protocol (Korff and Augustin: J Cell Sci 112: 3249-58, 1999). In brief, spheroids were prepared as described (Korff and Augustin: J Cell Biol 143:1341-52, 1998) by pipetting 500 HUVEC in a hanging drop on plastic dishes to allow overnight spheroid aggregation. 50 HUVEC spheroids were then seeded in 0.9 ml of a collagen gel and pipetted into individual wells of a 24 well plate to allow polymerization. The test compounds in combination with the growth factor VEGF-A at 25 ng/ml final assay concentration) were added after 30 min by pipetting 100 μl of a 10-fold concentrated working solution on top of the polymerized gel. Plates were incubated at 37° C. for 24 hours and fixed by adding 4% Roti-Histofix (Roth, Karlsruhe, Germany). Sprouting intensity of HUVEC spheroids treated with the growth factor and the inhibitors were quantitated by an image analysis system determining the cumulative sprout length per spheroid (CSL) using an inverted microscope and the digital imaging software NIS-Elements BR 3.0 (Nikon). The mean of the cumulative sprout length of 10 randomly selected spheroids was analyzed as an individual data point.

HUVECs [2] = test: HUVEC cell viability (Cyquant NF cell proliferation assay); type: cell-based, human; settings: normoxia (20% O2) and hypoxia (1% O2)
Procedure: ThermoFisher Cyquant NF cell proliferation assay kit Normoxia conditions: 37° C., 5% CO2, 20% O2 incubator Hypoxia conditions: 37° C., 5% CO2, 1% O2 incubator FIG. 2. Effect of GO-672 on vessel sprouting in vitro. Raw images from the experiment with 3D spheroids of HUVEC after treatment with GO-672 (B) and Sunitinib (A). VEGF-A was used as a stimulation factor. Dose-response plot of GO-672 (C) and Sunitinib (D).

RENCA renal tumor = test: Orthotopic RENCA syngeneic renal tumor model; type: in vivo, female BALB/c mice; settings: 30 mg/kg twice daily, i.p.
Procedure: (§1) The aim of this study was to evaluate the antitumor efficacy of GO-672 (4-({4-carboxy-2′,4′-dichloro-[1,1′-biphenyl]-3-yl}carbamoyl)-6-hydroxybenzene-1,3-dicarboxylic acid) (30 mg/kg twice daily, i.p.) in an orthotopic RENCA syngeneic renal tumor model in female BALB/c mice in vivo.

HUVECs [3] = test: Cell viability of HUVECs in normoxia and hypoxia; type: cell-based; settings: both normoxia and hypoxia conditions; FIG. 1
4T1-M3-Luc breast tumor = test: Orthotopic 4T1-M3-Luc syngeneic breast tumor model; type: in vivo, female BALB/c mice
Procedure: as §1, with “antitumor and anti-metastatic” for “antitumor”, “4T1-M3-Luc” for “RENCA”, “breast” for “renal”
Level of metastasis was evaluated in lymph nodes, lung, spine and ileum by ex vivo luciferase bioluminescence measurements (FIG. 10D).

MDA-MB-231 = test: Combination with anticancer agents, MDA-MB-231; type: cell-based; settings: Homo sapiens, anticancer agent alone
Procedure: (§2) All cells can be incubated in the plates overnight at 37° C., 5% 002 incubator with different medium.

MCF-7 = test: Combination with anticancer agents, MCF-7; type: cell-based; settings: Homo sapiens, MCF7, anticancer agent alone
Procedure: as §2

BT-549 = test: Combination with anticancer agents, BT-549; type: cell-based; settings: Homo sapiens, anticancer agent alone
Procedure: as §2

T-47D = test: Combination with anticancer agents, T-47D; type: cell-based; settings: Homo sapiens, T47D, anticancer agent alone
Procedure: as §2

Hs-578T = test: Combination with anticancer agents, Hs-578T; type: cell-based; settings: Homo sapiens, anticancer agent alone
Procedure: as §2

[4] = cited from earlier work
[5] = 30 mg/kg twice daily, i.p., day 18

SMILES: O=CC[C@@H](O)[C@H](O)[C@H](O)CO [2-deoxy-D-glucose]
adverse effect in clinical trial [1]: hyperglycemia in all treated patients

reduction of body weight vs control group (4T1-M3-Luc breast tumor; 30 mg/kg twice daily, i.p.): not significant
SMILES: O=C(O)c1cc(C(=O)O)c(C(=O)Nc2cc(-c3ccc(Cl)cc3Cl)ccc2C(=O)O)cc1O [Compound 1, 4-({4-carboxy-2′,4′-dichloro-[1,1′-biphenyl]-3-yl}carbamoyl)-6-hydroxybenzene-1,3-dicarboxylic acid]
Emax at 100 µM (HUVEC spheroids; HUVEC, at 100 μM, read-out: maximal effect: decrease of vessel sprouting down to): ~25% | Emax (HUVEC spheroids; HUVEC, at the highest doses, read-out: maximal effect of vessel reduction, % from the initial level): 25 to 50% | pEC50 (HUVEC spheroids; 3D HUVEC model, VEGF-A 25 ng/ml, 24 hours, read-out: EC50 of inhibition of vessel sprouting): 4.40 to 4.70 | cell viability of HUVECs (HUVECs [2]): did not reduce cell viability | bioluminescence (RENCA renal tumor; day 16): increase of bioluminescence | tumor volume after necropsy (RENCA renal tumor; day 17): significantly decreased | tumor weight after necropsy (RENCA renal tumor; day 17): no statistically significant difference | cell viability of HUVECs (HUVECs [3]): did not reduce cell viability | T/C ratio (tumor volume) (4T1-M3-Luc breast tumor; 30 mg/kg twice daily, i.p., day 4): 47% | T/C ratio (tumor volume) (4T1-M3-Luc breast tumor; 30 mg/kg twice daily, i.p., day 7): 65% | tumor volume after necropsy (4T1-M3-Luc breast tumor; [5]): significantly lower | tumor weight after necropsy (4T1-M3-Luc breast tumor; [5]): not tumor weight | level of metastasis (ex vivo luciferase bioluminescence) (4T1-M3-Luc breast tumor; lymph nodes, lung, spine and ileum): No statistically significant difference

pIC50 (MDA-MB-231): 4.84 | pIC50 (MCF-7): 4.84 | pIC50 (BT-549): 4.51 | pIC50 (T-47D): 4.68 | pIC50 (Hs-578T): 4.44
SMILES: NC(=O)c1cccc2cn(-c3ccc([C@@H]4CCCNC4)cc3)nc12 [Niraparib]

SMILES: O=C(O)c1nn(Cc2ccc(Cl)cc2Cl)c2ccccc12 [Lonidamine]
toxicities in preclinical trials [4]: significant pancreatic and hepatic toxicities
